The values that follow come from patent US8889696B2, “Substituted pyrido[2,3-d]pyrimidin-7(8H)-ones and therapeutic uses thereof” (Temple University—Of The Commonwealth System Of Higher …, priority 2009, dated 2014).

Data set [1] concerns the target T1, PLK2 (Homo sapiens (Human), UniProt Q9NYY3). Kind of data set: Affinity analysis with biotinylated compound, streptavidin pull-down from U2OS lysates, anti-Plk2 Western blot. The format is binding. The conditions noted are these: FIG. 2. As to the method:
Increasing concentrations of a biotinylated form of the compound were incubated with U2OS lysates. Streptavidin-conjugated agarose beads were utilized to pull down the biotinylated compound in complex with its interacting proteins.
Increasing concentrations of a biotinylated form of the compound were incubated for two hours with U2OS lysates (0.6 mg/ml) derived from the U2OS cell line. Streptavidin-conjugated agarose beads were utilized to pull down the biotinylated compound in complex with its interacting proteins. Pre-cleared streptavidin beads were added to each reaction mixture and incubated overnight at 4° C. The beads were washed and blotted with SDS-PAGE loading buffer and run on a 10% acrylamide denaturing gel. […] Western blotting was performed using an anti-Plk2 antibody.
Background: Immunoblotting shows a protein as a band on a membrane.

Data set [2] relates to tumor cells. Briefly: Apoptosis induction in tumor cells. Type of data set: cell-based.
The target of data set [3] is recombinant Plk1 (Homo sapiens (Human), UniProt P53350).
recombinant Plk1, sequence (P53350 whole entry): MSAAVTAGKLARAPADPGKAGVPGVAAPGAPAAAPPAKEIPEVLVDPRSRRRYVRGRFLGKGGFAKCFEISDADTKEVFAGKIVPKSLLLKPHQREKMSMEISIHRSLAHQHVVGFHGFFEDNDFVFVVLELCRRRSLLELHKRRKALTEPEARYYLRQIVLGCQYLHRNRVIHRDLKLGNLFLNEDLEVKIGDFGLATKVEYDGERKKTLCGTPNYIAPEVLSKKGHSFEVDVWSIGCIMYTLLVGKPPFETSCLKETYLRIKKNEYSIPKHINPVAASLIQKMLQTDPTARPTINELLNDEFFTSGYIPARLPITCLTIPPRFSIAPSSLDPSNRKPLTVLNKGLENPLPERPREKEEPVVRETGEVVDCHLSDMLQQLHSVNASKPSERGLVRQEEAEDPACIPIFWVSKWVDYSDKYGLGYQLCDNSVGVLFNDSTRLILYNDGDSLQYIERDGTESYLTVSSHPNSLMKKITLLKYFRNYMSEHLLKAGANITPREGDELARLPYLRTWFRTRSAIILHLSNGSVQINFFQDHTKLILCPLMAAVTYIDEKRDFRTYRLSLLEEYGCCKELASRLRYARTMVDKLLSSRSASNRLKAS
Data set [4] relates to U87. Briefly: Viable cell count GI50 (Table 4). Type of data set: cell-based. The conditions noted are these: U87, Glioblastoma; 96 h continuous treatment, trypan blue. The procedure:
(§1) Cells (1×10^5) were plated into 6-well dishes and 24 h later test compound was added at five different concentrations over a 2 log dilution (1-100 μM). The total number of viable cells was determined after 96 h of continuous treatment by staining with trypan blue and counting the number of non-staining cells (viable) remaining in each well using a hemacytometer. The percentage of viable cells remaining was calculated as follows: # viable cells (compound treated)/# viable cells (DMSO treated)*100.

The subject of data set [5] is SK-MEL-28. Kind of data set: Viable cell count GI50 (Table 4). The format is cell-based. The conditions noted are these: SK-MEL-28, Melanoma; 96 h continuous treatment, trypan blue. The procedure: as §1
The test system of data set [6] is U2OS. Kind of data set: Viable cell count GI50 (Table 4). Type of data set: cell-based. Conditions: Osteosarcoma, 96 h continuous treatment, trypan blue. As to the method:
as §1

Data set [7] relates to BT474. Briefly: Viable cell count GI50 (Table 4). Type of data set: cell-based. Conditions: BT474, Breast (Erbb2+); 96 h continuous treatment, trypan blue. The procedure: as §1
The test system of data set [8] is HELA. Briefly: Viable cell count GI50 (Table 4). Type of data set: cell-based. Conditions: Cervical, 96 h continuous treatment, trypan blue. The procedure:
as §1

In data set [9] the test system is GRANTA-519. Kind of data set: Viable cell count GI50 (Table 4). The format is cell-based. Conditions: GRANTA-519, Mantle Cell Lymphoma; 96 h continuous treatment, trypan blue. The procedure:
as §1

The test system of data set [10] is RAJI. Kind of data set: Viable cell count GI50 (Table 4). The format is cell-based. Conditions: B-Cell, 96 h continuous treatment, trypan blue. The procedure: as §1
Data set [11] deals with T1, PLK2. Kind of data set: Kinase profiling. The format is biochemical. The conditions noted are these: 10 μM ATP.
For data set [12], the target named is recombinant Plk3 (Homo sapiens (Human), UniProt Q9H4B4). Kind of data set: Plk kinase inhibition assay (32P-ATP, casein). Type of data set: biochemical. The conditions noted are these: 5 μM ATP, FIG. 1. The procedure: (§2) Ten ng of recombinant Plk1, Plk2, Plk3 or Plk4 kinase were incubated with the indicated concentrations of compound for 30 minutes at room temperature. Kinase reactions were started by the addition of substrate mix (5 μM ATP, 10 μCi γ^32P-ATP, 1 μg α-casein, 10 mM MgCl2) for 15 minutes at 30° C. Reactions were stopped by 3% phosphoric acid, spotted on PE30 filtermat, washed, dried and subjected to scintillation counting. Data is plotted (after background subtraction) using GraphPad Prism4 software as a non-linear regression plot with variable slope to obtain IC50 values.
(§3) Kinase reactions were started by the addition of substrate mix (5 μM ATP, 10 μCi γ^32P-ATP, 1 μg α-casein, 10 mM MgCl2) for 15 minutes at 30° C. Reactions were stopped by 3% phosphoric acid, spotted on PE30 filtermat, washed, dried and subjected to scintillation counting. Data is plotted (after background subtraction) using GraphPad Prism4 software as a non-linear regression plot with variable slope to obtain IC50 values.

Data set [13] has as its target T1, PLK2. Kind of data set: Plk kinase inhibition assay (32P-ATP, casein). The conditions noted are these: 5 μM ATP, FIG. 1. Type of data set: biochemical. As to the method: as §2, §3
Data set [14] concerns the target recombinant Plk4 (Homo sapiens (Human), UniProt O00444). Kind of data set: Plk kinase inhibition assay (32P-ATP, casein). The format is biochemical. The procedure: as §2, §3
The target in data set [15] is RSK1 (Homo sapiens (Human), UniProt Q15418). Briefly: biochemical.
RSK1, sequence (Q15418 whole entry): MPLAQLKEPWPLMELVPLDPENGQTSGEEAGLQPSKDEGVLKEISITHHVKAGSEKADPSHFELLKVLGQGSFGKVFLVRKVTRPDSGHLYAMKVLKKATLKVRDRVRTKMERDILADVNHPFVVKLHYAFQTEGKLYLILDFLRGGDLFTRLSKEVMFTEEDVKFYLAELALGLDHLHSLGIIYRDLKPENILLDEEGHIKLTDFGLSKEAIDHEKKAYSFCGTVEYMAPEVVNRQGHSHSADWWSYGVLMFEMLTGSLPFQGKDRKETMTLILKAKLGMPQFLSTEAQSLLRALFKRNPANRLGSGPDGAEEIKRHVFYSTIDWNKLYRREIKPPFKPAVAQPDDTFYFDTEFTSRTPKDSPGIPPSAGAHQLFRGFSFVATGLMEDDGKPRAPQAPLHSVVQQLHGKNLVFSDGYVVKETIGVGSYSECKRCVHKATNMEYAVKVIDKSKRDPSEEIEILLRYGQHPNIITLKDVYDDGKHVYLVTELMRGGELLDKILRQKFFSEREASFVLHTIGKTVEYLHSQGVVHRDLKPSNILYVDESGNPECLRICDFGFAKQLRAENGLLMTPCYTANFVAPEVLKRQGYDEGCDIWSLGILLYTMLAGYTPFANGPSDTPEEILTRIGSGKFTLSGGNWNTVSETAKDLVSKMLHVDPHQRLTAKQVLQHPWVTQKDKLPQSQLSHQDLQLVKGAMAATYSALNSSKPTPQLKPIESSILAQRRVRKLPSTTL
In data set [16] the test system is HFL. Briefly: Viable cell count GI50 (Table 4). The format is cell-based, human. Conditions: Normal, 96 h continuous treatment, trypan blue. The procedure:
as §1

Data set [17] addresses FGFR3 (Homo sapiens (Human), UniProt P22607). Briefly: Kinase profiling. The conditions noted are these: 10 μM ATP. Type of data set: biochemical.
In data set [18] the test system is U2OS osteosarcoma cells. Briefly: Induction of apoptosis in U2OS cells (Caspase Glo, Cell Titer Blue). The format is cell-based. Conditions: 24 hours, FIG. 3. As to the method: U2OS cells were treated with increasing concentrations of the compound for 24 hours. Cell viability was measured by incubating cells with Cell Titer Blue reagent at 37° C. for 3 hours under 5% CO2. Thereafter the cells were incubated with Caspase Glo reagent for 1 hour at room temperature to assay induction of Caspase 3/7 activity.
Cell viability was measured by incubating cells with Cell Titer Blue reagent (Promega) at 37° C. for 3 hours under 5% CO2. Thereafter the cells were incubated with Caspase Glo reagent (Promega) for 1 hour at room temperature to assay induction of Caspase 3/7 activity.
(In general: Resazurin is reduced to fluorescent resorufin, in cell work by metabolically active cells.)

Data set [19] has as its system U2OS osteosarcoma cells. Kind of data set: Spindle staining of U2OS cells (anti-alpha tubulin, fluorescent microscopy). The format is cell-based. Conditions: 1 uM, 24 hrs. As to the method:
The cells were fixed in 4% paraformaldehyde and stained with anti-alpha tubulin antibodies conjugated with FITC followed by 5 μg/ml […] staining. The coverslips were visualized by fluorescent microscopy using an Olympus microscope at 100× magnification equipped with the Insight digital camera system.

Data set [20] relates to CD-1 female mice. Briefly: Toxicity study in mice. The format is in vivo. The procedure: . DMSO was used as a placebo. Three CD-1 female mice were used per group. Drugs were administered intraperitoneally at 100 mg/kg. Viability, signs of toxicity and body weight were monitored over the next 7 days. […]. […] Comparative body weight studies could not be carried out for this compound due to the early death of animals. These observations agree with the known toxicity of BI-2536. […]. Following this treatment, 100% survival for >10 days after injection was observed. […]

Data set [21] addresses FLT3 (D835Y) (Homo sapiens (Human), UniProt P36888, D835Y). Kind of data set: Kinase profiling. The format is biochemical. The conditions noted are these: 10 μM ATP.
In data set [22] the target is WNK2 (Homo sapiens (Human), UniProt Q9Y3S1). Kind of data set: Kinase profiling. Type of data set: biochemical. The conditions noted are these: 10 μM ATP.
WNK2, sequence (Q9Y3S1 whole entry): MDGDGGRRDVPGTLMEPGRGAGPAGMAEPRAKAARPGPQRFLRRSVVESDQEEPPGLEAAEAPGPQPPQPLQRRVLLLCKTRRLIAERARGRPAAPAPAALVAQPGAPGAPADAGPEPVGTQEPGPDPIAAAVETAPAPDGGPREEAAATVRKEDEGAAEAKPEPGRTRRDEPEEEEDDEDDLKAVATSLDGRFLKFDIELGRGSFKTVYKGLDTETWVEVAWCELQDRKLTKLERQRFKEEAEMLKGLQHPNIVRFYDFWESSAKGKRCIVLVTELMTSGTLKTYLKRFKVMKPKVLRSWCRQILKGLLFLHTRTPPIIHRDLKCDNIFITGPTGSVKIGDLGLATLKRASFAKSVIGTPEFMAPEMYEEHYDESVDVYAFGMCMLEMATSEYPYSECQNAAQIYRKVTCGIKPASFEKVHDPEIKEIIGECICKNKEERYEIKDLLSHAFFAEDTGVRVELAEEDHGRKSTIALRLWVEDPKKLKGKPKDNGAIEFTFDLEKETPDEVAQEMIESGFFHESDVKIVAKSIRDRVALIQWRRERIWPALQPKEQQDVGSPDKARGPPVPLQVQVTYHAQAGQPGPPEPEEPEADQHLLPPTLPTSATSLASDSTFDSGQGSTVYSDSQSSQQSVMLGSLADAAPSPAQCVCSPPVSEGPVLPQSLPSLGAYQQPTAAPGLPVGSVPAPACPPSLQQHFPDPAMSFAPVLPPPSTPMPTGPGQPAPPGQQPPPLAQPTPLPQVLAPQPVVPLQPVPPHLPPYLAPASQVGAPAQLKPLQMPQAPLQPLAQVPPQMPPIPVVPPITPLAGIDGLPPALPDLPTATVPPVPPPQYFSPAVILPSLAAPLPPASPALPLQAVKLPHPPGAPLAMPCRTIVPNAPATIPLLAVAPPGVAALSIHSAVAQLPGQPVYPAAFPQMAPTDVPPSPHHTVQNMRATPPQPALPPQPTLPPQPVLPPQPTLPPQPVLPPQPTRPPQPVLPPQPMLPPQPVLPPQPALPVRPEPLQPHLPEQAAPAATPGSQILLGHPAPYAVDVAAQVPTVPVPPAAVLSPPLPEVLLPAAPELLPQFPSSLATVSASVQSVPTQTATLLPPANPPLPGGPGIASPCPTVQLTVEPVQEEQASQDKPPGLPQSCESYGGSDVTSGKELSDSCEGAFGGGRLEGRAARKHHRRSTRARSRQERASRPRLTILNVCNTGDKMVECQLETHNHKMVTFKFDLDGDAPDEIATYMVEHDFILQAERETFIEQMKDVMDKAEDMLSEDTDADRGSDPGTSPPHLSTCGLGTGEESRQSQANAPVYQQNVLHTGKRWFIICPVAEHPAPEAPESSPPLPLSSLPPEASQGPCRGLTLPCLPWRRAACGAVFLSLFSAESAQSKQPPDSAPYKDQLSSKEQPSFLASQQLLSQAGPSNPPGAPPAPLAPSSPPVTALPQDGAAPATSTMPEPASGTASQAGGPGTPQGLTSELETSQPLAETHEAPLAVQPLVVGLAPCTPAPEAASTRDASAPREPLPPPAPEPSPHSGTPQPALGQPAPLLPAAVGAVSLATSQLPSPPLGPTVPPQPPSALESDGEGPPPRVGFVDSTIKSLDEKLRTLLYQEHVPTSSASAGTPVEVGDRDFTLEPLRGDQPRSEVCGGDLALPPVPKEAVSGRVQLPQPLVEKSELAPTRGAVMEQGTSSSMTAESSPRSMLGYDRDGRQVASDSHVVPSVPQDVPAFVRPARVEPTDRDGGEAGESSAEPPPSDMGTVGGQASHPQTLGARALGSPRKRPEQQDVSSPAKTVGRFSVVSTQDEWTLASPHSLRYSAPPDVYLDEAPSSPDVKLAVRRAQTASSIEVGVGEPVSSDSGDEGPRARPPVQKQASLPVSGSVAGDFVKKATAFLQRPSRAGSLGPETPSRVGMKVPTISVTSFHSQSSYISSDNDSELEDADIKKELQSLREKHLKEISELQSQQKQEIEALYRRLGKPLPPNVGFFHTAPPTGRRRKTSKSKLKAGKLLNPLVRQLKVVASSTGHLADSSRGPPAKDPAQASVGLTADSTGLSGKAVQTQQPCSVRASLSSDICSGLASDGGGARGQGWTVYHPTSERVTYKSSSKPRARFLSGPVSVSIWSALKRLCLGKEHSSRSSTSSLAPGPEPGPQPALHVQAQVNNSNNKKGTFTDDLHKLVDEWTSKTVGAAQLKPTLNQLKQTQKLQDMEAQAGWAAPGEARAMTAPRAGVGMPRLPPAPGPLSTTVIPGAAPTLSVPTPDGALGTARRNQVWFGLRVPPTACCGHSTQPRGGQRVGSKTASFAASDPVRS
In data set [23] the target is PBK/TOPK (Homo sapiens (Human), UniProt Q96KB5). Briefly: Kinase profiling. Type of data set: biochemical. Conditions: 10 μM ATP.
PBK/TOPK, sequence (Q96KB5 whole entry): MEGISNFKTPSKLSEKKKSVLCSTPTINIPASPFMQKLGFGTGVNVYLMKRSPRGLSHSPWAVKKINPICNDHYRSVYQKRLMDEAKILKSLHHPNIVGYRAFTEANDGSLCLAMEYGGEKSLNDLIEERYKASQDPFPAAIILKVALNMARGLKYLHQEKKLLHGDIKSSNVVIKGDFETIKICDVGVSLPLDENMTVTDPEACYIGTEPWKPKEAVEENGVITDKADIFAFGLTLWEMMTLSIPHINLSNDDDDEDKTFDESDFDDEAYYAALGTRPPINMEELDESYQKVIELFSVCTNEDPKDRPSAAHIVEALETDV
The mark [24] stands for this setting: 100 mg/kg intraperitoneally, monitored over 7 days.

T1 sequence (Q9NYY3 whole entry): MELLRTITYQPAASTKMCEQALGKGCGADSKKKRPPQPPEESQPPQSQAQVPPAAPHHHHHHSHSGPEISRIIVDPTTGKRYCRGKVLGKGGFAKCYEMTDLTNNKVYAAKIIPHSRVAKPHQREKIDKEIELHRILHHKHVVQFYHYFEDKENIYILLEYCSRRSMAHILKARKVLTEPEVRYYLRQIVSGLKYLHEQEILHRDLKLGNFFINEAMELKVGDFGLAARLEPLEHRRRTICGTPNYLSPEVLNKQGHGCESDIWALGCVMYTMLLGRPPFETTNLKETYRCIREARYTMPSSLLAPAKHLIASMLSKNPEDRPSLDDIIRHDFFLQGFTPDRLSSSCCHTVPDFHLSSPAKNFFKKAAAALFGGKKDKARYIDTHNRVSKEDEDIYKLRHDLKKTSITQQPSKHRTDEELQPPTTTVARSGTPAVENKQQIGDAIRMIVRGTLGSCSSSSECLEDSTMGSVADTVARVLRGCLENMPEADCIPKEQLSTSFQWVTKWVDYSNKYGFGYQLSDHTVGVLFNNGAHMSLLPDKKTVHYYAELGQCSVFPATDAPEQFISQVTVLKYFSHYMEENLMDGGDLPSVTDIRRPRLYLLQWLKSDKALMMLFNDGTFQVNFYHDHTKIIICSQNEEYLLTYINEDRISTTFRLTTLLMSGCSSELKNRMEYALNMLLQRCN

As for `Cn1c(=O)c(S(=O)(=O)c2ccc(F)cc2F)cc2cnc(Nc3ccc4[nH]ccc4c3)nc21` [Example 39, 2-(1H-indol-5-ylamino)-6-(2,4-difluorophenylsulfonyl)-8-methylpyrido[2,3-d]pyrimidin-7(8H)-one], the “competition of Plk2 / compound-biotin interaction by free compound” value in data set [1] was “readily competed out”. Also, the “concentration inducing apoptosis in tumor cells” value in [2] is “approximately 100 nM”. In data set [3], the “inhibitory activity against PLK-1” value is “little or no inhibitory activity”. The concentration for 50% growth inhibition (GI50) in data set [4] came out at 200 nM; in data set [5], 200 nM; in [6], 50 nM; in data set [7], 100 nM; in [8] it was 50 nM; in [9] it was 40 nM. Besides, the GI50 in data set [10] was 50 nM; in data set [16], more than 5000 nM. In addition, the half-inhibitory concentration (IC50) came to 201 nM in data set [11], 4250 nM in [15], 9000 nM in data set [17] and 8850 nM in [21]. In data set [12], the “inhibitory activity against PLK-3” value is reported as “little or no inhibitory activity”. Also, the “inhibitory activity against PLK-2” value in data set [13] is “potent inhibitor”. In addition, the “inhibitory activity against PLK-4” value in data set [14] is “little or no inhibitory activity”. Also, the cell viability entry in data set [18] (Cell Titer Blue) is “dose-dependent decrease in cell viability”. Besides, in data set [18], the induction of apoptosis entry is reported as “induces apoptosis of U2OS osteosarcoma cells in a dose-dependent fashion”. Further, the “treated cells mitotically arrested with multipolar spindles” value in [19] is “greater than 95%”. Further, the signs of toxicity result in [20] (setting [24]) was “No signs of toxicity”. Moreover, the survival of mice in data set [20] (setting [24]) is 100%; in data set [20] (200 mg/kg, for >10 days after injection) it was 100%. Further, the weight loss entry in data set [20] (setting [24]) was “No weight loss”.
On to Staurosporine, for which the values for the half-inhibitory concentration (IC50) in data set [22] and in data set [23] were 8090 nM and 433 nM, respectively.

As usually defined, the GI50 is the concentration at which growth is held to half of that of the control. A low value points to more potent growth inhibition. The IC50 is the concentration that inhibits the measured activity by half. A higher IC50 goes with weaker potency in that assay.
